Laboratory results taken from ChEMBL document CHEMBL1135003, “Synthesis of aglycon analogues of sarmentosin and their bioactivity of lymphocyte proliferation” (2002).

How the values were obtained:
Format in all cases: functional
[1] = In vitro effect on the proliferation of B lymphocytes of mouse splenocytes at 0.2 umol/L to show the antibody formation by [3H]thymidine incorporation
[2] = In vitro effect on the proliferation of B lymphocytes of mouse splenocytes at 2.0 umol/L to show the antibody formation by [3H]thymidine incorporation
[3] = In vitro effect on the proliferation of B lymphocytes of mouse splenocytes at 20 umol/L to show the antibody formation by [3H]thymidine incorporation
[4] = In vitro effect on the proliferation of T lymphocytes of mouse splenocytes at 20 umol/L to show the cell-mediated immunity by [3H]thymidine incorporation
[5] = In vitro effect on the proliferation of T lymphocytes of mouse splenocytes at 0.2 umol/L to show the cell-mediated immunity by [3H]thymidine incorporation
[6] = In vitro effect on the proliferation of T lymphocytes of mouse splenocytes at 2 umol/L to show the cell-mediated immunity by [3H]thymidine incorporation

N#C/C(=C\COC(=O)c1ccccc1)CO
Activity [1]: 137%
Activity [2]: 73%
Activity [3]: 67%
Activity [4]: 23%
Activity [5]: 97%
Activity [6]: 68%

N#C/C(=C\COC(=O)/C=C/c1ccccc1)CO
Activity [1]: 96%
Activity [2]: 69%
Activity [3]: 20%
Activity [4]: 38%
Activity [5]: 80%
Activity [6]: 62%

N#C/C(=C\COC(=O)c1ccc(F)cc1Cl)CO
Activity [1]: 151%
Activity [2]: 151%
Activity [3]: 113%
Activity [4]: 29%
Activity [5]: 123%
Activity [6]: 98%

COc1ccc(COC/C=C(\C#N)CO)cc1
Activity [1]: 169%
Activity [2]: 71%
Activity [3]: 38%
Activity [4]: 37%
Activity [5]: 93%
Activity [6]: 54%

N#C/C(=C\COC(=O)c1ccc(Cl)cc1Cl)CO
Activity [1]: 68%
Activity [2]: 69%
Activity [3]: 73%
Activity [4]: 131%
Activity [5]: 119%
Activity [6]: 94%

N#C/C(=C\COc1ccccc1)CO
Activity [1]: 51%
Activity [2]: 48%
Activity [3]: 45%
Activity [4]: 131%
Activity [5]: 100%
Activity [6]: 113%

COc1ccc(OC/C=C(\C#N)CO)cc1
Activity [1]: 81%
Activity [2]: 77%
Activity [3]: 79%
Activity [4]: 80%
Activity [5]: 101%
Activity [6]: 114%

COc1ccc(C(=O)OC/C=C(\C#N)CO)cc1
Activity [1]: 109%
Activity [2]: 86%
Activity [3]: 31%
Activity [4]: 25%
Activity [5]: 100%
Activity [6]: 63%
